This is an account of results in US20260028336A1 (Arcus Biosciences, Inc., priority 2022, published 2026).

As usually defined, the EC50 is the concentration at which the effect is half-maximal. A high value points to a less potent agent. For orientation: IC50 means the concentration that gives 50% inhibition. A higher IC50 goes with weaker potency.

Test [1] concerns Jurkat cells. The experiment in a line: IL-2 secretion assay in CD3/CD28-activated Jurkat cells (AlphaLISA). Format: cell-based. As to conditions: Homo sapiens, CD3/CD28 T Cell Activator, 24 h, IL-2 AlphaLISA. In short, it runs like this: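 Jurkat cells (50,000/well) were preincubated 1 h at 37° C with compound in a 16-point 1:2 series spanning 10 μM to 300 pM final. Cells were then activated with CD3/CD28 T cell activator, and secreted IL-2 was read by AlphaLISA. EC50 came from 4-parameter logistic fits.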
(Bead proximity is the source of the signal in Alpha formats.)

Test [2] addresses T1, Cbl-b (Homo sapiens, UniProt Q13191).
T1 construct: biotin (biotinylated)
The experiment in a line: Cbl-b probe displacement HTRF binding assay. As to conditions: 0.4 nM biotinylated Cbl-b, 150 nM BODIPY probe. The procedure, abridged: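 Biotinylated Cbl-b was preincubated with compound for 60 min at room temperature in HEPES/NaCl/Triton/TCEP/BSA buffer. BODIPY probe was added for 15 min, followed by streptavidin-terbium, and the HTRF signal was read. Displacement was normalised to DMSO and no-protein controls, and affinity was obtained from a four-parameter dose-response fit.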
(Time-resolved FRET reads energy transfer from a long-lived donor to a nearby acceptor.)

The structures appear in SMILES notation.

T1 sequence (Q13191 whole entry, species assumed): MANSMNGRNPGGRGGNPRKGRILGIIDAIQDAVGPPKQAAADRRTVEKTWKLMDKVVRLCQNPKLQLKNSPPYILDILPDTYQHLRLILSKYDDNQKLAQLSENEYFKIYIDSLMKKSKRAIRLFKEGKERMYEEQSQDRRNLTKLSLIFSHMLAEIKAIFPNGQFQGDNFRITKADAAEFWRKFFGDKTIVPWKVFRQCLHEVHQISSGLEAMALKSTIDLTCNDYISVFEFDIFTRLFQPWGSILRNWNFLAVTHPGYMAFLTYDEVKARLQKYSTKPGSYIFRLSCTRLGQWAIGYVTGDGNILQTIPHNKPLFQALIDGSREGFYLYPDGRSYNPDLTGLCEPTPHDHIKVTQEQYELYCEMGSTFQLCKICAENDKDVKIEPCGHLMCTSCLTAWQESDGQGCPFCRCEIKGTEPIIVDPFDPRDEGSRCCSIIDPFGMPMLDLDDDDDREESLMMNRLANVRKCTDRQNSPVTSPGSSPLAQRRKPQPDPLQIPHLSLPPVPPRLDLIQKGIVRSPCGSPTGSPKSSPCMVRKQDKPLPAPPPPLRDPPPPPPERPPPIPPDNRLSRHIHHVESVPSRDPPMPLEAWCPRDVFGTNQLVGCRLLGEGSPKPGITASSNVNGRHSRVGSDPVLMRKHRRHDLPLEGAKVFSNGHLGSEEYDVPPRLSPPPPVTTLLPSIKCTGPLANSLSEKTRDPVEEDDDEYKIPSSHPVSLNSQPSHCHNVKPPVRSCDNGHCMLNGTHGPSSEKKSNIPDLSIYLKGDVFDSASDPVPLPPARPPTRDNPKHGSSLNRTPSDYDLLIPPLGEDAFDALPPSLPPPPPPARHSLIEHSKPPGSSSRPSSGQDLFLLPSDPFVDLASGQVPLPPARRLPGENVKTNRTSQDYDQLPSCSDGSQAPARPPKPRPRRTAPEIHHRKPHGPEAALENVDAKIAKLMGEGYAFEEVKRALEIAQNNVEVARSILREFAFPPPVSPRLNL

Compound `Cn1cnnc1[C@]1(c2cccc(-n3cc(CO)c4cn[nH]c4c3=O)c2)C[C@H](C)C1` [Example 142, 4-(Hydroxymethyl)-6-{3-[(1R,3S)-3-methyl-1-(4-methyl-4H-1,2,4-triazol-3-yl)cyclobutyl]phenyl}-1H,6H,7H-pyrazolo[3,4-c]pyridin-7-one] came in with a concentration for a half-maximal effect (EC50) in test [1] of more than 5000 nM. In test [2], this compound displayed an IC50 of 1000 to 5000 nM.
For `C[C@H]1CCCN(Cc2cc3c(C4CC4)cn(-c4cccc(C5(c6nncn6C6CC6)CC6(CC6)C5)c4)c(=O)c3[nH]2)C1` [Example 144, 4-cyclopropyl-6-[3-[5-(4-cyclopropyl-1,2,4-triazol-3-yl)spiro[2.3]hexan-5-yl]phenyl]-2-[[(3S)-3-methylpiperidin-1-yl]methyl]-1H-pyrrolo[2,3-c]pyridin-7-one] the same measures were 100 to 1000 nM and less than 100 nM.
In the case of `CC(C)n1cnnc1C1(c2cccc(-n3cc(C4CC4)c4cc(CN5CCC[C@H](C)C5)[nH]c4c3=O)c2)CC2(CC2)C1` [Example 145, 4-Cyclopropyl-2-[[(3S)-3-methylpiperidin-1-yl]methyl]-6-[3-[5-(4-propan-2-yl-1,2,4-triazol-3-yl)spiro[2.3]hexan-5-yl]phenyl]-1H-pyrrolo[2,3-c]pyridin-7-one], the EC50 in test [1] was in the range of 1000 to 5000 nM. Besides, in test [2], the IC50 is less than 100 nM.
Turning to `C[C@H]1CCCN(Cc2cc3c(C4CC4)cn(-c4cccc(C5(c6nncn6CC(F)F)CC6(CC6)C5)c4)c(=O)c3[nH]2)C1` [Example 146, 4-Cyclopropyl-6-[3-[5-[4-(2,2-difluoroethyl)-1,2,4-triazol-3-yl]spiro[2.3]hexan-5-yl]phenyl]-2-[[(3S)-3-methylpiperidin-1-yl]methyl]-1H-pyrrolo[2,3-c]pyridin-7-one], the EC50 in test [1] fell in the range of 100 to 1000 nM. The same compound returned an IC50 in test [2] of less than 100 nM.
For `C[C@H]1CCCN(Cc2cc3c(C4CC4)cn(-c4cccc(C5(c6nncn6CC(F)(F)F)CC6(CC6)C5)c4)c(=O)c3[nH]2)C1` [Example 147, 4-Cyclopropyl-2-[[(3S)-3-methylpiperidin-1-yl]methyl]-6-[3-[5-[4-(2,2,2-trifluoroethyl)-1,2,4-triazol-3-yl]spiro[2.3]hexan-5-yl]phenyl]-1H-pyrrolo[2,3-c]pyridin-7-one] the same measures were 1000 to 5000 nM and less than 100 nM.
`C[C@H]1CCCN(Cc2cc3c(C4CC4)cn(-c4cccc([C@]5(c6nncn6C(F)F)C[C@H](F)C5)c4)c(=O)c3[nH]2)C1` [Example 148, 2—{[(S)-3-methyl-1-piperidyl]methyl}-4-cyclopropyl-6-(m-{1-[4-(difluoromethyl)-4H-1,2,4-triazol-3-yl]-3-fluorocyclobutyl}phenyl)-1,6-dihydro-1,6-diaza-7-indenone]: the concentration giving a half-maximal response (EC50) in test [1] is less than 100 nM. In test [2], this compound returned an IC50 of less than 100 nM.
Turning to `C[C@H]1CCCN(Cc2cc3ncn(-c4cccc([C@]5(c6nncn6C(F)F)C[C@H](F)C5)c4)c(=O)c3[nH]2)C1` [Example 149, 2—{[(S)-3-methyl-1-piperidyl]methyl}-6-(m-{(1r,3S)-1-[4-(difluoromethyl)-4H-1,2,4-triazol-3-yl]-3-fluorocyclobutyl}phenyl)-1,6-dihydro-1,4,6-triaza-7-indenone], the EC50 in test [1] is less than 100 nM. This compound also gave a half-maximal inhibitory concentration (IC50) in test [2] of less than 100 nM.
In test [1], `C[C@H]1CCCN(Cc2cc3c(C4CC4)cn(-c4cccc(C5(c6nncn6C(F)F)CC6(CC6)C5)c4)c(=O)c3[nH]2)C1` [Example 150, 4-cyclopropyl-6-[3-[5-[4-(difluoromethyl)-1,2,4-triazol-3-yl]spiro[2.3]hexan-5-yl]phenyl]-2-[[(3S)-3-methylpiperidin-1-yl]methyl]-1H-pyrrolo[2,3-c]pyridin-7-one] registered an EC50 of less than 100 nM. The same compound returned an IC50 in test [2] of less than 100 nM.
Take `C[C@H]1CCCN(Cc2cc3c(C4CC4)cn(-c4cccc([C@]5(c6nncn6C(F)F)C[C@H](OC(F)F)C5)c4)c(=O)c3[nH]2)C1` [Example 151, 2—{[(S)-3-methyl-1-piperidyl]methyl}-4-cyclopropyl-6-(m-{(1r,3S)-3-difluoromethoxy-1-[4-(difluoromethyl)-4H-1,2,4-triazol-3-yl]cyclobutyl}phenyl)-1,6-dihydro-1,6-diaza-7-indenone]: the concentration for a half-maximal effect (EC50) in test [1] was less than 100 nM. Further, the half-maximal inhibitory concentration (IC50) in test [2] is less than 100 nM.
As to `O=c1c2[nH]c(CNCC3(O)CCC3)cc2c(C2CC2)cn1-c1cccc([C@]2(c3nncn3C(F)F)C[C@H](OC(F)F)C2)c1` [Example 152, 4-cyclopropyl-2-({[(1-hydroxycyclobutyl)methyl]amino}methyl)-6-(m-{(1r,3r)-3-difluoromethoxy-1-[4-(difluoromethyl)-4H-1,2,4-triazol-3-yl]cyclobutyl}phenyl)-1,6-dihydro-1,6-diaza-7-indenone], the concentration for a half-maximal effect (EC50) in test [1] lay within 1000 to 5000 nM. Moreover, the half-inhibitory concentration (IC50) in test [2] was less than 100 nM.
`C[C@H]1CCCN(Cc2cc3c(C4CC4)cn(-c4cccc([C@H](c5nncn5C(F)F)C5CCC5)c4)c(=O)c3[nH]2)C1` [Example 154, 6-(m-{(R)-cyclobutyl[4-(difluoromethyl)-4H-1,2,4-triazol-3-yl]methyl}phenyl)-2-{[(S)-3-methyl-1-piperidyl]methyl}-4-cyclopropyl-1,6-dihydro-1,6-diaza-7-indenone]: in test [1], the 50% effective concentration (EC50) is 100 to 1000 nM. Also, the IC50 in test [2] was less than 100 nM.
In turn, `C[C@H]1CCCN(Cc2cc3c(C4CC4)cn(-c4cccc(C(O)(c5nncn5C)C5CCC5)c4)c(=O)c3[nH]2)C1` (stereo partly drawn) [Example 155, 6-[3-[cyclobutyl-hydroxy-(4-methyl-1,2,4-triazol-3-yl)methyl]phenyl]-4-cyclopropyl-2-[[(3S)-3-methylpiperidin-1-yl]methyl]-1H-pyrrolo[2,3-c]pyridin-7-one] showed a half-maximal effective concentration (EC50) in test [1] of 100 to 1000 nM. In test [2], this compound yielded an IC50 of less than 100 nM.
As for `C[C@H]1CCCN(Cc2cc3c(C4CC4)cn(-c4cccc(C(O)(c5nncn5C)C(F)(F)F)c4)c(=O)c3[nH]2)C1` (stereo partly drawn) [Example 156], the 50% effective concentration (EC50) in test [1] lay within 100 to 1000 nM. For the same compound, the IC50 in test [2] was less than 100 nM.
In test [1], `COC(c1cccc(-n2cc(C3CC3)c3cc(CN4CCC[C@H](C)C4)[nH]c3c2=O)c1)c1nncn1C` (stereo partly drawn) [Example 158] registered an EC50 of 100 to 1000 nM. In test [2], this compound returned a concentration for half-maximal inhibition (IC50) of less than 100 nM.
In turn, `COC(C)(c1cccc(-n2cc(C3CC3)c3cc(CN4CCC[C@H](C)C4)[nH]c3c2=O)c1)c1nncn1C` (stereo partly drawn) [Example 159, 4-cyclopropyl-6-[3-[1-methoxy-1-(4-methyl-1,2,4-triazol-3-yl)ethyl]phenyl]-2-[[(3S)-3-methylpiperidin-1-yl]methyl]-1H-pyrrolo[2,3-c]pyridin-7-one] had an EC50 in test [1] of 100 to 1000 nM. The IC50 in test [2] is 100 to 1000 nM.
In test [1], `C[C@H]1CCCN(Cc2cc3c(C4CC4)cn(-c4cc(C(C)(C)c5nncn5C)ccn4)c(=O)c3[nH]2)C1` [Example 160, 2—{[(S)-3-methyl-1-piperidyl]methyl}-4-cyclopropyl-6-{4-[1-methyl-1-(4-methyl-4H-1,2,4-triazol-3-yl)ethyl]-2-pyridyl}-1,6-dihydro-1,6-diaza-7-indenone] came in with an EC50 of 100 to 1000 nM. Further, in test [2], the IC50 was in the range of 100 to 1000 nM.
For the compound `C[C@H]1CCCN(Cc2cc3c(C4CC4)cn(-c4cccc(C(F)(F)c5nncn5C)c4)c(=O)c3[nH]2)C1` [Example 161, 4-cyclopropyl-6-[3-[difluoro-(4-methyl-1,2,4-triazol-3-yl)methyl]phenyl]-2-[[(3S)-3-methylpiperidin-1-yl]methyl]-1H-pyrrolo[2,3-c]pyridin-7-one], in test [1], the concentration giving a half-maximal response (EC50) lay within 100 to 1000 nM. The same compound returned a concentration for half-maximal inhibition (IC50) in test [2] of less than 100 nM.
For `C[C@H]1CCCN(Cc2cc3c(C4CC4)cn(-c4cccc(C(F)c5nncn5C)c4)c(=O)c3[nH]2)C1` (stereo partly drawn) [Example 162, 4-cyclopropyl-6-[3-[fluoro-(4-methyl-1,2,4-triazol-3-yl)methyl]phenyl]-2-[[(3S)-3-methylpiperidin-1-yl]methyl]-1H-pyrrolo[2,3-c]pyridin-7-one] the same measures were 100 to 1000 nM and 100 to 1000 nM.
In test [1], `C[C@H]1CCCN(Cc2cc3c(C4CC4)cn(-c4cccc(C(C)(F)c5nncn5C)c4)c(=O)c3[nH]2)C1` (stereo partly drawn) [Example 163, 4-cyclopropyl-6-[3-[1-fluoro-1-(4-methyl-1,2,4-triazol-3-yl)ethyl]phenyl]-2-[[(3S)-3-methylpiperidin-1-yl]methyl]-1H-pyrrolo[2,3-c]pyridin-7-one] showed an EC50 of less than 100 nM. In addition, in test [2], the IC50 was less than 100 nM.
Consider `C[C@H]1CCCN(Cc2cc3c(C4CC4)cn(-c4cccc(C(C)(F)c5nccn5C)c4)c(=O)c3[nH]2)C1` (stereo partly drawn) [Example 164], for which the half-maximal effective concentration (EC50) in test [1] was in the range of 1000 to 5000 nM. The compound also registered a half-inhibitory concentration (IC50) in test [2] of 1000 to 5000 nM.
As for `CC(c1cccc(-n2cc(C3CC3)c3cc(CN4CCC[C@H](C)C4)[nH]c3c2=O)c1)c1nncn1C` (stereo partly drawn) [Example 165, 4-cyclopropyl-2-[[(3S)-3-methylpiperidin-1-yl]methyl]-6-[3-[1-(4-methyl-1,2,4-triazol-3-yl)ethyl]phenyl]-1H-pyrrolo[2,3-c]pyridin-7-one], the concentration giving a half-maximal response (EC50) in test [1] is less than 100 nM. Further, in test [2], the half-inhibitory concentration (IC50) was less than 100 nM.
